Experimental data published in US20140107316A1, “DRUG DELIVERY CONJUGATES CONTAINING UNNATURAL AMINO ACIDS AND METHODS FOR USING” (priority 2012, published 2014).
“Also recorded” adds a separate entry of the source. Read-outs that look alike come from different tables or passages of the source.

How the values were obtained:
[1] = tested on: folate receptor-positive KB cells; conditions: for In vitro specificity (fold): difference in IC50 between competed and non-competed group
Procedure: Inhibition of Cellular DNA Synthesis. The compounds described herein were evaluated using an in vitro cytotoxicity assay that predicts the ability of the drug to inhibit the growth of folate receptor-positive KB cells. The compounds were comprised of folate linked to a respective chemotherapeutic drug, as prepared according to the protocols described herein. The KB cells were exposed for up to 7 h at 37° C. to the indicated concentrations of folate-drug conjugate in the absence or presence of at least a 100-fold excess of folic acid. The cells were then rinsed once with fresh culture medium and incubated in fresh culture medium for 72 hours at 37° C. Cell viability was assessed using a ^3H-thymidine incorporation assay.
In vitro test against the various cancer cell lines. Cells are heavily seeded in 24-well Falcon plates and allowed to form nearly confluent monolayers overnight. Thirty minutes prior to the addition of the test compound, spent medium is aspirated from all wells and replaced with fresh folate-deficient RPMI medium (FFRPMI). A subset of wells are designated to receive media containing 100 μM folic acid. The cells in the designated wells are used to determine the targeting specificity. […] Following one rinse with 1 mL of fresh FFRPMI containing 10% heat-inactivated fetal calf serum, each well receives 1 mL of medium containing increasing concentrations of test compound (4 wells per sample) in the presence or absence of 100 μM free folic acid as indicated. Treated cells are pulsed for 2 h at 37° C., rinsed 4 times with 0.5 mL of media, and then chased in 1 mL of fresh medium up to 70 h. Spent medium is aspirated from all wells and replaced with fresh medium containing 5 μCi/mL ^3H-thymidine. Following a further 2 h 37° C. incubation, cells are washed 3 times with 0.5 mL of PBS and then treated with 0.5 mL of ice-cold 5% trichloroacetic acid per well. After 15 min, the trichloroacetic acid is aspirated and the cell material solubilized by the addition of 0.5 mL of 0.25 N sodium hydroxide for 15 min. A 450 μL aliquot of each solubilized sample is transferred to a scintillation vial containing 3 mL of Ecolume scintillation cocktail and then counted in a liquid scintillation counter. Final tabulated results are expressed as the percentage of ^3H-thymidine incorporation relative to untreated controls.
Folate receptor expressing cells. […] EC1456 was evaluated from 0.1-100 nM.

[2] = tested on: KB tumors; experiment: KB tumor assay in nu/nu mice; conditions: for CR (%) / Cures (%) / PR (%) / Toxicity Avg. Weight Loss / Toxicity Deaths (%): TIW, 2 weeks
Procedure: Inhibition of Tumor Growth in Mice. Four to seven week-old mice (Balb/c or nu/nu strains) were purchased from Harlan Sprague Dawley, Inc. (Indianapolis, Ind.). Normal rodent chow contains a high concentration of folic acid (6 mg/kg chow); accordingly, mice used were maintained on the folate-free diet (Harlan diet #TD00434) for 1 week before tumor implantation to achieve serum folate concentrations close to the range of normal human serum. For tumor cell inoculation, 1×10^6 M109 cells (Balb/c strain) or 1×10^6 KB cells (nu/nu strain) in 100 μL were injected in the subcutis of the dorsal medial area. Tumors were measured in two perpendicular directions every 2-3 days using a caliper, and their volumes were calculated as 0.5×L×W^2, where L=measurement of longest axis in mm and W=measurement of axis perpendicular to L in mm. […] Dosing solutions were prepared fresh each day in PBS and administered through the lateral tail vein of the mice.
General KB Tumor Assay. The anti-tumor activity of the compounds described herein, when administered intravenously (i.v.) to tumor-bearing animals, was evaluated in nu/nu mice bearing subcutaneous KB tumors. Approximately 8 days post tumor inoculation in the subcutis of the right axilla with 1×10^6 KB cells (average tumor volume at to=50-100 mm^3), in mice (5/group) were injected i.v. three times a week (TIW), for 3 weeks with […] of the drug delivery conjugate or with an equivalent dose volume of PBS (control), unless otherwise indicated. Tumor growth was measured using calipers at 2-day or 3-day intervals in each treatment group. Tumor volumes were calculated using the equation V=a×b^2/2, where “a” is the length of the tumor and “b” is the width expressed in millimeters.
Toxicity as Measured by Weight Loss. The percentage weight change of the mice was determined in mice (5 mice/group) on selected days post-tumor inoculation (PTI), and graphed.
In vivo activity against tumors.

[3] = Maximum tolerated dose (MTD); type: in vivo, female Sprague-Dawley rats; conditions: rat, in vivo, iv, BIW, 2 wks
From the text: Maximum tolerated dose (MTD). […] For Example, EC1456 has a MTD of at least 0.51 μmol/kg and EC0531 has a MTD of 0.33 μmol/kg, […] when administered by i.v., BIW, 2 wks in female Sprague-Dawley rats. Histopathologic changes were not observed with doses of EC1456 at or below the MTD.

[4] = biological target: T1, folate receptors (FRs) (Homo sapiens, UniProt P15328); experiment: Relative affinity assay (3H-folic acid displacement on KB cells); type: binding; conditions: compared to folic acid (relative affinity=1), 10% serum/FDRPMI
T1 construct: FR-positive KB cells were heavily seeded into 24-well cell culture plates; endogenous in cells; host or cells: KB cells (human cervical carcinoma)
Procedure: Relative Affinity Assay. The affinity for folate receptors (FRs) relative to folate was determined according to a previously described method (Westerhof, G. R., J. H. Schornagel, et al. (1995) Mol. Pharm. 48: 459-471) with slight modification. Briefly, FR-positive KB cells were heavily seeded into 24-well cell culture plates and allowed to adhere to the plastic for 18 h. Spent incubation media was replaced in designated wells with folate-free RPMI (FFRPMI) supplemented with 100 nM ^3H-folic acid in the absence and presence of increasing concentrations of test article or folic acid. Cells were incubated for 60 min at 37° C. and then rinsed 3 times with PBS, pH 7.4. Five hundred microliters of 1% SDS in PBS, pH 7.4, were added per well. Cell lysates were then collected and added to individual vials containing 5 mL of scintillation cocktail, and then counted for radioactivity. Negative control tubes contained only the ^3H-folic acid in FFRPMI (no competitor). Positive control tubes contained a final concentration of 1 mM folic acid, and CPMs measured in these samples (representing non-specific binding of label) were subtracted from all samples.

[5] = tested on: cells in culture; experiment: Cytotoxicity to cells in culture; type: cell-based; conditions: read-out: typical IC50, cells in culture
[6] = tested on: KB-CR tumors; experiment: Cisplatin-resistant KB-CR tumor model; type: in vivo; conditions: 3 mg/kg, twice per week (T/Th), 2 weeks
[7] = read-out: 50% competition, competed group (excess folic acid)
[8] = 1.0 μmol/kg (2 doses), only 2 doses due to toxicity

T1 sequence (P15328 25-234): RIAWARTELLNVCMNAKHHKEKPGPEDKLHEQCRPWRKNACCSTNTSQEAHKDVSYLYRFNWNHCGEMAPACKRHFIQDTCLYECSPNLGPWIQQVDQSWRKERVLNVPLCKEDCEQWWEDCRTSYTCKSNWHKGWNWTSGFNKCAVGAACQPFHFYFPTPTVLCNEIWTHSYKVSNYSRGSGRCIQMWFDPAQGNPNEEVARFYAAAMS

SMILES | In vitro specificity (fold) [1] [fold] | IC50 [1, 7] [nM] | IC50 ([1]; read-out: In vitro IC50) [nM] | In vivo activity [2] | Relative Affinity [4] | further results
N=c1[nH]c(N)nc2ncc(CNc3ccc(C(=O)N[C@@H](CCC(=O)NNC(=O)OCCSSC[C@H](NC(=O)[C@H](CCC(=O)NC[C@H](O)[C@@H](O)[C@H](O)[C@H](O)CO)NC(=O)[C@H](CCC(=O)O)NC(=O)[C@H](CCC(=O)NC[C@H](O)[C@@H](O)[C@H](O)[C@H](O)CO)NC(=O)[C@H](CCC(=O)O)NC(=O)[C@H](CCC(=O)NC[C@H](O)[C@@H](O)[C@H](O)[C@H](O)CO)NC(=O)CC[C@H](NC(=O)c4ccc(NCc5cnc6nc(N)[nH]c(=O)c6n5)cc4)C(=O)O)C(=O)O)C(=O)O)cc3)nc12 [EC0531, reference compound] | 237 | 355 | 1.5 | Complete |  | MTD at 2 weeks [3]: 0.33 µmol/kg
CCCC(=O)OCN(C(=O)[C@@H](NC(=O)[C@H]1CCCCN1C)C(C)CC)[C@H](C[C@@H](OC(C)=O)c1nc(C(=O)N[C@@H](Cc2ccc(O)cc2)C[C@H](C)C(=O)NNC(=O)OCCSSC[C@@H](NC(=O)[C@@H](CC(=O)O)NC(=O)[C@@H](CC(=O)O)NC(=O)[C@@H](CCCNC(=N)N)NC(=O)[C@@H](CC(=O)O)NC(=O)CC[C@@H](NC(=O)c2ccc(NCc3cnc4nc(N)[nH]c(=O)c4n3)cc2)C(=O)O)C(=O)O)cs1)C(C)C (some centres unmarked) [EC1299] | 778 | 700 | 0.9 | Complete | 0.29 | 
CCCC(=O)OCN(C(=O)[C@@H](NC(=O)[C@H]1CCCCN1C)C(C)CC)[C@H](C[C@@H](OC(C)=O)c1nc(C(=O)N[C@@H](Cc2ccc(O)cc2)C[C@H](C)C(=O)NNC(=O)OCCSSC(C)(C)[C@@H](NC(=O)[C@@H](CC(=O)O)NC(=O)[C@@H](CC(=O)O)NC(=O)[C@@H](CCCNC(=N)N)NC(=O)[C@@H](CC(=O)O)NC(=O)CC[C@@H](NC(=O)c2ccc(NCc3cnc4nc(N)[nH]c(=O)c4n3)cc2)C(=O)O)C(=O)O)cs1)C(C)C (some centres unmarked) [EC1393] | 300 | 600 | 2.2 |  | 0.25 | 
CCCC(=O)OCN(C(=O)[C@@H](NC(=O)[C@H]1CCCCN1C)C(C)CC)[C@H](C[C@@H](OC(C)=O)c1nc(C(=O)N[C@@H](Cc2ccc(O)cc2)C[C@H](C)C(=O)NNC(=O)OCCSSC[C@@H](NC(=O)[C@H](CC(=O)O)NC(=O)[C@H](CC(=O)O)NC(=O)[C@H](CCCNC(=N)N)NC(=O)[C@H](CC(=O)O)NC(=O)CC[C@H](NC(=O)c2ccc(NCc3cnc4nc(N)[nH]c(=O)c4n3)cc2)C(=O)O)C(=O)O)cs1)C(C)C (some centres unmarked) [EC1548] | 78 | 350 | 4.4 | Complete | 0.23 | 
CCCC(=O)OCN(C(=O)[C@@H](NC(=O)[C@H]1CCCCN1C)C(C)CC)C(C[C@@H](OC(C)=O)c1nc(C(=O)N[C@@H](Cc2ccc(O)cc2)C[C@H](C)C(=O)NNC(=O)OCCSSC[C@@H](NC(=O)[C@@H](CC(=O)O)NC(=O)[C@H](CC(=O)O)NC(=O)[C@H](CCCNC(=N)N)NC(=O)[C@H](CC(=O)O)NC(=O)CC[C@H](NC(=O)c2ccc(NCc3cnc4nc(N)[nH]c(=O)c4n3)cc2)C(=O)O)C(=O)O)cs1)C(C)C (some centres unmarked) [EC1549] | 78 | 350 | 4.5 | Complete | 0.90 | 
CCCCOCN(C(=O)[C@@H](NC(=O)[C@H]1CCCCN1C)C(C)CC)[C@H](C[C@@H](OC(C)=O)c1nc(C(=O)N[C@@H](Cc2ccc(O)cc2)C[C@H](C)C(=O)NNC(=O)OCCSSC[C@@H](NC(=O)[C@H](CCC(=O)NC[C@H](O)[C@@H](O)[C@H](O)[C@H](O)CO)NC(=O)[C@@H](CCC(=O)O)NC(=O)[C@H](CCC(=O)NC[C@H](O)[C@@H](O)[C@H](O)[C@H](O)CO)NC(=O)[C@@H](CCC(=O)O)NC(=O)[C@H](CCC(=O)NC[C@H](O)[C@@H](O)[C@H](O)[C@H](O)CO)NC(=O)CC[C@@H](NC(=O)c2ccc(NCc3cnc4nc(N)[nH]c(=O)c4n3)cc2)C(=O)O)C(=O)O)cs1)C(C)C (some centres unmarked) [EC1663] |  |  |  |  |  | whole animal toxicity ([2]; 0.5 μmol/kg TIW, 2 wk, compared to PBS control): did not exhibit significant host animal toxicity; also recorded: does not show any evidence of whole animal toxicity; partial responses (test animals) ([2]; intravenously 0.5 μmol/kg TIW, 2 wk): 4/4
CCCC(=O)OCN(C(=O)[C@@H](NC(=O)[C@H]1CCCCN1C)C(C)CC)[C@H](C[C@@H](OC(C)=O)c1nc(C(=O)N[C@@H](Cc2ccc(O)cc2)C[C@H](C)C(=O)NN)cs1)C(C)C (some centres unmarked) [TubBH, tubulysin B hydrazide] |  |  |  |  |  | CR (%) ([2]; 0.5 μmol/kg): 0%; Cures (%) ([2]; 0.5 μmol/kg): 0%; PR (%) ([2]; 0.5 μmol/kg): 0%; Toxicity Avg. Weight Loss ([2]; 0.5 μmol/kg): <5.5%; Toxicity Deaths (%) ([2]; 0.5 μmol/kg): 0%; CR (%) ([2]; 0.75 μmol/kg): 0%; Cures (%) ([2]; 0.75 μmol/kg): 0%; PR (%) ([2]; 0.75 μmol/kg): 0%; Toxicity Avg. Weight Loss ([2]; 0.75 μmol/kg): >10%; Toxicity Deaths (%) ([2]; 0.75 μmol/kg): 20%; CR (%) [2, 8]: 0%; Cures (%) [2, 8]: 0%; PR (%) [2, 8]: 0%; Toxicity Avg. Weight Loss [2, 8]: >15%; Toxicity Deaths (%) [2, 8]: 20%; toxicity in relation to anti-tumor effect in mice ([2]; mouse, in vivo): dose-limiting toxicities in mice at levels that did not produce measurable anti-tumor effect; IC50 [5]: ~1 nM
N.N.[Cl][Pt][Cl] [cisplatin, reference compound] |  |  |  |  |  | partial responses (PRs) [6]: no PRs
